target: T1, KCNT1 (KNa1.1, Slack) (Homo sapiens, UniProt Q5JUK3); experiment: KCNT1-WT-Basal patch clamp assay (SyncroPatch 384PE, HEK-TREX inducible cell line); type: cell-based; conditions: tetracycline inducible HEK-TREX cells; perforated patch; holding -80 mV, 100 ms step to 0 mV; room temperature; read-out: KCNT1 WB IC50
T1 construct: expressed in transfected cells; host or cells: HEK-TREX (tetracycline-inducible HEK cell line)
T1 sequence (Q5JUK3 1-1230): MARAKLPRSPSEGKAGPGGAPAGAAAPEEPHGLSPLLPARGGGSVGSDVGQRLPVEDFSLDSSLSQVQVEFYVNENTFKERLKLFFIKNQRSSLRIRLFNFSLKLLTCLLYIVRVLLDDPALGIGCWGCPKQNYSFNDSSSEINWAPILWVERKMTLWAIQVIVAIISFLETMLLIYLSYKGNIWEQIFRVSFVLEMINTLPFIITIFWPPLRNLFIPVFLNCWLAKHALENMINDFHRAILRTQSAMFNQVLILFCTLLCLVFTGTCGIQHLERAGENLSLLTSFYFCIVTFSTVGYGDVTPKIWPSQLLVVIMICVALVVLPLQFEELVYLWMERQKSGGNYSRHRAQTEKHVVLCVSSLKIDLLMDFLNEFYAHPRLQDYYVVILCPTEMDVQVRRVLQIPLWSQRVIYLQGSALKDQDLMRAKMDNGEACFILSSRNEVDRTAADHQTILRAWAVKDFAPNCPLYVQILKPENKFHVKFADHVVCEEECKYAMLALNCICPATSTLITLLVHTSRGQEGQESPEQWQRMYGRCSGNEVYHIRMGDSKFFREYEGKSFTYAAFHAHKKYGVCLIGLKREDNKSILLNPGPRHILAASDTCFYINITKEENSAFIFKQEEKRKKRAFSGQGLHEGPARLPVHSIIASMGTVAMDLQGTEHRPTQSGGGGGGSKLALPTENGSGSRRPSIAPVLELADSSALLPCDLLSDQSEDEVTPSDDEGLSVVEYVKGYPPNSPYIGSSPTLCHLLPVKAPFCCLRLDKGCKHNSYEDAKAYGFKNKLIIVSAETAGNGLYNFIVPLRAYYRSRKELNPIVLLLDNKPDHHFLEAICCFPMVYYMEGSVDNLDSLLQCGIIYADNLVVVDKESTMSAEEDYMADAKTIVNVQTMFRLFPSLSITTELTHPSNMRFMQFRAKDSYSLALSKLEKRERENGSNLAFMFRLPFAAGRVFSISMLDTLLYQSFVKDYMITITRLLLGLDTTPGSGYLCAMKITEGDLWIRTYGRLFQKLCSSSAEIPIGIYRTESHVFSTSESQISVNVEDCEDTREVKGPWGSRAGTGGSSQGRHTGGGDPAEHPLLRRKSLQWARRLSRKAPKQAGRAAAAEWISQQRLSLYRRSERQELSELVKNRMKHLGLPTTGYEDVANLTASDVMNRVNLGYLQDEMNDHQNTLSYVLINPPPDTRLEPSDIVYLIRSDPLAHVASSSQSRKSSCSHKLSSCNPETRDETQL
Description: KCNT1-WT-Basal—Patch Clamp Assay
Inhibition of KCNT1 (KNa1.1, Slack) was evaluated using a tetracycline inducible cell line (HEK-TREX). Currents were recorded using the SyncroPatch 384PE automated, patch clamp system. Pulse generation and data collection were performed with PatchController384 V1.3.0 and DataController384 V1.2.1 (Nanion Technologies). The access resistance and apparent membrane capacitance were estimated using built-in protocols. Current were recorded in perforated patch mode (10 μM escin) from a population of cells. The cells were lifted, triturated, and resuspended at 800,000 cells/ml. The cells were allowed to recover in the cell hotel prior to experimentation. Currents were recorded at room temperature. The external solution contained the following (in mM): NaCl 105, NMDG 40, KCl 4, MgCl2 1, CaCl2 5 and HEPES 10 (pH=7.4, Osmolarity ˜300 mOsm). The extracellular solution was used as the wash, reference and compound delivery solution. The internal solution contained the following (in mM): NaCl 70, KF 70, KCl 10, EGTA 5, HEPES 5 and Escin 0.01 (pH=7.2, Osmolarity ˜295 mOsm). Escin is made at a 5 mM stock in water, aliquoted, and stored at −20° C. The compound plate was created at 2× concentrated in the extracellular solution. The compound was diluted to 1:2 when added to the recording well. The amount of DMSO in the extracellular solution was held constant at the level used for the highest tested concentration. A holding potential of −80 mV with a 100 ms step to 0 mV was used. Mean current was measured during the step to 0 mV. […] The average mean current from 3 sweeps was calculated and the % inhibition of each compound was calculated. The % Inhibition as a function of the compound concentration was fit with a Hill equation to derive IC50, slope, min and max parameters. If KCNT1 inhibition was less than 50% at the highest tested concentration or if an IC50 could not be calculated, then a percent inhibition was reported in place of the IC50.

Compound | IC50
Cn1nc(C(F)(F)F)cc1C(=O)N[C@@H]1CCc2cc(Cl)ccc21 [Compound I-26] | ≤ 1000 nM
CCS(=O)(=O)c1ccc(C(=O)N[C@@H]2CCc3cc(Cl)ccc32)cc1 [Compound II-30] | ≤ 1000 nM
CN(c1ccc(C(=O)N[C@H]2CCc3cc(Cl)ccc32)cc1)S(=O)(=O)C(F)(F)F [Compound II-21] | 1000 to 20000 nM
CNC(=O)c1ccc(C(=O)N[C@@H]2CCc3cc(Cl)ccc32)s1 [Compound I-28] | ≤ 1000 nM
CS(=O)(=O)Nc1ccc(C(=O)N[C@H]2CCc3cc(Cl)ccc32)cc1 [Compound II-3] | ≥ 20000 nM
Nc1ccc(C(=O)N[C@@H]2CCc3cc(Cl)ccc32)cc1 [Compound II-9, 4-amino-N-[(1R)-5-chloroindan-1-yl]benzamide] | 1000 to 20000 nM
O=C(N[C@H]1CCc2cc(Cl)ccc21)c1ccc(NS(=O)(=O)C(F)(F)F)cc1 [Compound II-29, N-[(1S)-5-chloroindan-1-yl]-4-(trifluoromethylsulfonylamino)benzamide] | ≥ 20000 nM
Cn1c(C(=O)N[C@@H]2CCc3cc(Cl)ccc32)ccc1S(N)(=O)=O [Compound I-13] | ≥ 20000 nM
COc1ccc(C(=O)NC2CCc3cc(Cl)ccc32)cc1 (single isomer, unassigned) [Compound II-8, N-(5-chloroindan-1-yl)-4-methoxy-benzamide] | 1000 to 20000 nM
CNS(=O)(=O)c1ccc(C(=O)N[C@@H]2CCc3cc(Cl)ccc32)cc1 [Compound II-27] | ≤ 1000 nM
O=C(N[C@@H]1CCc2cc(Cl)ccc21)c1ccc(NS(=O)(=O)C2CC2)cc1 [Compound II-11, N-[(1R)-5-chloroindan-1-yl]-4-(cyclopropylsulfonylamino)benzamide] | 1000 to 20000 nM
CCS(=O)(=O)c1ccc(C(=O)N[C@@H]2CCc3cc(Cl)ccc32)s1 [Compound I-34] | ≤ 1000 nM
CS(=O)(=O)c1ccc(C(=O)N[C@H]2CCCc3cc(Cl)ccc32)s1 (single isomer, unassigned) [Compound I-24] | ≤ 1000 nM
Cc1oc(S(N)(=O)=O)cc1C(=O)N[C@@H]1CCc2cc(Cl)ccc21 [Compound I-11] | ≥ 20000 nM
CNS(=O)(=O)c1ccc(C(=O)N[C@@H]2CCCc3cc(Cl)ccc32)s1 (single isomer, unassigned) [Compound I-23] | 1000 to 20000 nM
Cn1nc(C2CC2)cc1C(=O)N[C@@H]1CCc2cc(Cl)ccc21 [Compound I-2] | 1000 to 20000 nM

Now from value to compound:

IC50 | Compound
≤ 1000 nM | O=C(N[C@@H]1CCc2cc(Cl)ccc21)c1ccc(F)cc1O [Compound III-4]
≤ 1000 nM | O=C(N[C@@H]1CCc2cc(Cl)ccc21)c1ccccc1O [Compound III-3]
≥ 20000 nM | O=C(N[C@H]1CCc2cc(Cl)ccc21)c1ccc(F)cc1 (single isomer, unassigned) [Compound II-41]
≤ 1000 nM | CS(=O)(=O)Nc1ccc(C(=O)NC2CCc3cc(C(F)(F)F)ccc32)cc1 (single isomer, unassigned) [Compound II-56, 4-(methanesulfonamido)-N-[5-(trifluoromethyl)indan-1-yl]benzamide]
≥ 20000 nM | CS(=O)(=O)Nc1ccc(C(=O)NC2CCCc3cc(Cl)ccc32)cc1 (single isomer, unassigned) [Compound II-52, N-(6-chlorotetralin-1-yl)-4-(methanesulfonamido)benzamide]
> 20000 nM | CS(=O)(=O)Nc1ccc(C(=O)NC2CCc3cc(C(F)(F)F)ccc32)cc1 (single isomer, unassigned) [Compound II-58, 4-(methanesulfonamido)-N-[5-(trifluoromethyl)indan-1-yl]benzamide]
1000 to 20000 nM | COCCN(c1ccc(C(=O)N[C@@H]2CCc3cc(Cl)ccc32)cc1)S(C)(=O)=O [Compound II-43]
≤ 1000 nM | CS(=O)(=O)c1ccc(C(=O)N[C@@H]2CCc3cc(Cl)ccc32)cc1F [Compound II-35]
1000 to 20000 nM | CS(=O)(=O)c1ccc(C(=O)N[C@H]2CCCc3cc(Cl)ccc32)cc1 (single isomer, unassigned) [Compound II-55]
1000 to 20000 nM | CN(C)CCN(c1ccc(C(=O)N[C@@H]2CCc3cc(Cl)ccc32)cc1)S(C)(=O)=O [Compound II-44]

Reference: patent US20220280476A1, “KCNT1 INHIBITORS AND METHODS OF USE” (Praxis Precision Medicines, Inc., priority 2019, published 2022)
